Assay results as given in PubChem BioAssay AID248 (DTP/NCI, 2004).
“And” between values parts separate entries of the source, which are not always exact repeats. Equal entries are not always repeated. Inconclusive results and toxic doses are left out. Cut-off read from the data, not from the text of the source: active = T/C of 150% or more; inactive = T/C below 125%.

System: L1210 leukemia ip in BDF1 mice, survival T/C
Assay: NCI In Vivo Anticancer Drug Screen. Data for tumor model L1210 Leukemia (intraperitoneal) in B6D2F1 (BDF1) mice
Settings: endpoint: mean survival time, higher = longer survival
Outline: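 Antitumor effect is assessed in tumor-bearing animals. Survival in the compound arm is compared with a vehicle-dosed control arm and expressed as their quotient.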

[1] = dose: 100.0 mg/kg/injection, schedule: Q04DX002 (ip), vehicle: saline
[2] = dose: 200.0 mg/kg/injection, schedule: Q04DX002 (ip), vehicle: saline
[3] = dose: 400.0 mg/kg/injection, schedule: Q04DX002 (ip), vehicle: saline
[4] = dose: 100.0 mg/kg/injection, schedule: Q04DX003 (ip), vehicle: Klucel (hydroxypropylcellulose) (HPC)
[5] = dose: 200.0 mg/kg/injection, schedule: Q04DX003 (ip), vehicle: Klucel (hydroxypropylcellulose) (HPC)
[6] = dose: 400.0 mg/kg/injection, schedule: Q04DX003 (ip), vehicle: Klucel (hydroxypropylcellulose) (HPC)
[7] = dose: 50.0 mg/kg/injection, schedule: Q04DX002 (ip), vehicle: Klucel (hydroxypropylcellulose) (HPC)
[8] = dose: 100.0 mg/kg/injection, schedule: Q04DX002 (ip), vehicle: Klucel (hydroxypropylcellulose) (HPC)
[9] = dose: 200.0 mg/kg/injection, schedule: Q04DX002 (ip), vehicle: Klucel (hydroxypropylcellulose) (HPC)
[10] = dose: 400.0 mg/kg/injection, schedule: Q04DX002 (ip), vehicle: Klucel (hydroxypropylcellulose) (HPC)
[11] = dose: 100.0 mg/kg/injection, schedule: Q01DX001 (ip), vehicle: saline
[12] = dose: 200.0 mg/kg/injection, schedule: Q01DX001 (ip), vehicle: saline
[13] = dose: 400.0 mg/kg/injection, schedule: Q01DX001 (ip), vehicle: saline
[14] = dose: 100.0 mg/kg/injection, schedule: Q01DX009 (ip), vehicle: Klucel (hydroxypropylcellulose) (HPC)
[15] = dose: 200.0 mg/kg/injection, schedule: Q01DX009 (ip), vehicle: Klucel (hydroxypropylcellulose) (HPC)
[16] = dose: 50.0 mg/kg/injection, schedule: Q01DX001 (ip), vehicle: saline

Measured: T/C

CC1(C)C2CCC1(C)C(OCCCN=C(N)CSS(=O)(=O)O)C2 (stereo not drawn)
inactive: dose: 1.5 mg/kg/injection, schedule: Q04DX002 (ip), vehicle: Klucel (hydroxypropylcellulose) (HPC) 113 % of control | dose: 3.0 mg/kg/injection, schedule: Q04DX002 (ip), vehicle: Klucel (hydroxypropylcellulose) (HPC) 100 % of control | dose: 6.0 mg/kg/injection, schedule: Q04DX002 (ip), vehicle: Klucel (hydroxypropylcellulose) (HPC) 91 % of control

Cn1ncc(C(N)=O)c1N
inactive: dose: 100.0 mg/kg/injection, schedule: Q01DX009 (ip), vehicle: saline 100 % of control | [1] 87 % of control | dose: 200.0 mg/kg/injection, schedule: Q01DX009 (ip), vehicle: saline 103 % of control | [2] 87 % of control | dose: 400.0 mg/kg/injection, schedule: Q01DX009 (ip), vehicle: saline 96 % of control | [3] 90 % of control

CCSc1nc(C(OC)OC)c(Cc2ccccc2)c(=O)[nH]1
inactive: [4] 95 % of control | [5] 89 % of control | [6] 100 % of control

CSC(NC(=O)c1ccc([N+](=O)[O-])cc1)C(N)=O (stereo not drawn)
inactive: [7] 102 % of control | [8] 106 % of control | [9] 109 % of control and 113 % of control | [10] 109 % of control

O=C(O)c1cc(-c2ccccc2)cc(Br)c1O
inactive: dose: 100.0 mg/kg/injection, schedule: Q01DX001 (ip), vehicle: carboxymethylcellulose (CMC) 93 % of control | dose: 200.0 mg/kg/injection, schedule: Q01DX001 (ip), vehicle: carboxymethylcellulose (CMC) 95 % of control

Oc1cccc(-c2cccc(OCCCCCCCCCCBr)c2)c1
inactive: dose: 12.5 mg/kg/injection, schedule: Q01DX009 (ip), vehicle: DMSO 108 % of control | dose: 25.0 mg/kg/injection, schedule: Q01DX009 (ip), vehicle: DMSO 94 % of control | dose: 100.0 mg/kg/injection, schedule: Q04DX003 (ip), vehicle: DMSO 92 % of control | dose: 200.0 mg/kg/injection, schedule: Q04DX003 (ip), vehicle: DMSO 91 % of control

CCCCCCC(C)OCC(=O)c1ccccc1 (stereo not drawn)
inactive: [1] 94 % of control | [2] 91 % of control

BrC12CCC(CC1)C1(Br)CCC2CC1
inactive: [11] 102 % of control | dose: 100.0 mg/kg/injection, schedule: Q04DX003 (ip), vehicle: saline 86 % of control | [12] 96 % of control | dose: 200.0 mg/kg/injection, schedule: Q04DX003 (ip), vehicle: saline 91 % of control | [13] 89 % of control | dose: 400.0 mg/kg/injection, schedule: Q04DX003 (ip), vehicle: saline 86 % of control

Cc1n[n+]([O-])c(C)cc1Cl
inactive: [8] 104 % of control | [9] 104 % of control | [10] 119 % of control

Nc1ncnc(N)c1NC(=O)c1cc(Cl)cc(Cl)c1
inactive: [4] 91 % of control | [6] 86 % of control

O=c1[nH]cc([N+](=O)[O-])c(=O)[nH]1
inactive: [1] 100 % of control | [2] 106 % of control | [3] 95 % of control

CN(C)CCCN=C1Nc2ccccc2C(=NCCCN(C)C)Nc2ccccc21
inactive: dose: 12.5 mg/kg/injection, schedule: Q01DX009 (ip), vehicle: saline 97 % of control | dose: 12.5 mg/kg/injection, schedule: Q04DX003 (ip), vehicle: saline 102 % of control | dose: 25.0 mg/kg/injection, schedule: Q01DX009 (ip), vehicle: saline 97 % of control | dose: 25.0 mg/kg/injection, schedule: Q04DX003 (ip), vehicle: saline 98 % of control | dose: 50.0 mg/kg/injection, schedule: Q01DX009 (ip), vehicle: saline 94 % of control | dose: 50.0 mg/kg/injection, schedule: Q04DX003 (ip), vehicle: saline 104 % of control

O=C1C(=O)c2ccccc2C=C1Br
inactive: [4] 94 % of control | [5] 95 % of control

Cc1oncc1/C=C/c1ccon1
inactive: dose: 100.0 mg/kg/injection, schedule: Q04DX003 (ip), vehicle: other 96 % of control | dose: 200.0 mg/kg/injection, schedule: Q04DX003 (ip), vehicle: other 91 % of control

CC(=O)OCC1C2CCC(C2)C1C (stereo not drawn)
inactive: dose: 75.0 mg/kg/injection, schedule: Q01DX001 (ip), vehicle: acetone 95 % of control | dose: 150.0 mg/kg/injection, schedule: Q01DX001 (ip), vehicle: acetone 101 % of control | dose: 300.0 mg/kg/injection, schedule: Q01DX001 (ip), vehicle: acetone 114 % of control

O=C1NC(=O)C2CC(Br)C(Br)CC12 (stereo not drawn)
inactive: dose: 2.5 mg/kg/injection, schedule: Q01DX009 (ip), vehicle: Klucel (hydroxypropylcellulose) (HPC) 100 % of control | dose: 2.5 mg/kg/injection, schedule: Q04DX003 (ip), vehicle: Klucel (hydroxypropylcellulose) (HPC) 98 % of control | dose: 5.0 mg/kg/injection, schedule: Q01DX009 (ip), vehicle: Klucel (hydroxypropylcellulose) (HPC) 100 % of control | dose: 5.0 mg/kg/injection, schedule: Q04DX003 (ip), vehicle: Klucel (hydroxypropylcellulose) (HPC) 100 % of control | dose: 10.0 mg/kg/injection, schedule: Q01DX009 (ip), vehicle: Klucel (hydroxypropylcellulose) (HPC) 100 % of control | dose: 10.0 mg/kg/injection, schedule: Q04DX003 (ip), vehicle: Klucel (hydroxypropylcellulose) (HPC) 98 % of control and 100 % of control

CN=C(N)C(C)SS(=O)(=O)O (stereo not drawn)
inactive: dose: 50.0 mg/kg/injection, schedule: Q01DX009 (ip), vehicle: Klucel (hydroxypropylcellulose) (HPC) 101 % of control | [7] 106 % of control | [14] 107 % of control | [8] 92 % of control | [15] 104 % of control | [9] 89 % of control and 91 % of control

CC(=O)OCC(OC(C)=O)C(OC(C)=O)C(OC(C)=O)C(C#N)OC(C)=O (stereo not drawn)
inactive: [16] 106 % of control | dose: 100.0 mg/kg/injection, schedule: Q01DX001 (ip), vehicle: other 115 % of control | [11] 103 % of control | dose: 200.0 mg/kg/injection, schedule: Q01DX001 (ip), vehicle: other 102 % of control | [12] 95 % of control | dose: 400.0 mg/kg/injection, schedule: Q01DX001 (ip), vehicle: other 96 % of control | [13] 91 % of control

Cc1ccc(NC(=S)NCCO)cc1
inactive: dose: 100.0 mg/kg/injection, schedule: Q04DX003 (ip), vehicle: saline with Tween-80 100 % of control | dose: 200.0 mg/kg/injection, schedule: Q04DX003 (ip), vehicle: saline with Tween-80 102 % of control | dose: 400.0 mg/kg/injection, schedule: Q04DX003 (ip), vehicle: saline with Tween-80 97 % of control

O=C(Nc1cccc(C2=NCCN2)c1)c1ccc2cc(C(=O)Nc3cccc(C4=NCCN4)c3)ccc2c1
inactive: dose: 7.5 mg/kg/injection, schedule: Q01DX Z (ip), vehicle: carboxymethylcellulose (CMC) 106 % of control | dose: 15.0 mg/kg/injection, schedule: Q01DX Z (ip), vehicle: carboxymethylcellulose (CMC) 104 % of control and 115 % of control | dose: 30.0 mg/kg/injection, schedule: Q01DX Z (ip), vehicle: carboxymethylcellulose (CMC) 104 % of control and 123 % of control | dose: 60.0 mg/kg/injection, schedule: Q01DX Z (ip), vehicle: carboxymethylcellulose (CMC) 119 % of control | dose: 120.0 mg/kg/injection, schedule: Q01DX Z (ip), vehicle: carboxymethylcellulose (CMC) 120 % of control

CN(C)c1cc2c3c(c1)CCCN3CCC2
inactive: dose: 6.25 mg/kg/injection, schedule: Q01DX001 (ip), vehicle: saline 108 % of control | dose: 12.5 mg/kg/injection, schedule: Q01DX001 (ip), vehicle: saline 101 % of control

O=C(Oc1ccncc1)c1ccccc1
inactive: dose: 100.0 mg/kg/injection, schedule: Q01DX001 (ip), vehicle: saline with Tween-80 92 % of control | dose: 200.0 mg/kg/injection, schedule: Q01DX001 (ip), vehicle: saline with Tween-80 96 % of control | dose: 400.0 mg/kg/injection, schedule: Q01DX001 (ip), vehicle: saline with Tween-80 103 % of control

O=NN(CC(=O)O)C(c1ccccc1)(c1ccccc1)c1ccccc1Cl
inactive: [4] 95 % of control | [5] 93 % of control

CNC1(c2ccc(F)cc2)CCCCC1
inactive: [16] 98 % of control | [11] 98 % of control

CC(=O)CN1C(=O)c2ccccc2C1=O
inactive: [14] 102 % of control | [4] 111 % of control | [15] 108 % of control | [5] 104 % of control | dose: 400.0 mg/kg/injection, schedule: Q01DX009 (ip), vehicle: Klucel (hydroxypropylcellulose) (HPC) 105 % of control | [6] 98 % of control
